The source of these data is US20100278932A1, “POLYMER MICELLES CONTAINING SN-38 FOR THE TREATMENT OF CANCER” (Intezyne Technologies, Incorporated, priority 2009, published 2010).

Data set [1] can be described thus: Pharmacokinetics in cannulated rats. The class given is in vivo. The conditions noted are these: 5 mg/kg (SN-38 equivalent mass) fast IV bolus, SN-38 in plasma, IT-141 of Example 40.
Method: Pharmacokinetic data was generated from cannulated rats. […] Each group consisted of three rats.
150 μL of the supernatant was transferred to a HPLC vial for analysis. […] 150 μL of extraction solution was then added and vortexed for an additional 10 minutes. […] 150 μL of the supernatant was transferred to a HPLC vial for analysis. […] The mobile phase was 70% buffer and 30% acetonitrile (buffer=10 mM sodium phosphate with 0.1% triethyl amine adjusted to pH 3.5) flowing at 0.8 mL/min with an 18 minute run time. A calibration curve was constructed from the area under the curve of each of the seven standards and the SN-38 of each of the unknown samples determined from the curve.
The conditions of data set [2]: cited from earlier work.

Structures can show the parent of a compound that is named as a salt.

For `CCc1c2c(nc3ccc(OC(=O)N4CCC(N5CCCCC5)CC4)cc13)-c1cc3c(c(=O)n1C2)COC(=O)[C@]3(O)CC` [CPT-11, irinotecan hydrochloride], in data set [1], the AUC is recorded as 0.26 hours*μg SN-38/mL. Take `CCc1c2c(nc3ccc(O)cc13)-c1cc3c(c(=O)n1C2)COC(=O)[C@]3(O)CC` [SN-38, 7-ethyl-10-hydroxycamptothecin]: in data set [2], the “solubility in aqueous solutions” value is given as “exceedingly insoluble”.
